Data taken from ChEMBL document CHEMBL3045041, “Synthesis of novel aryl(4-substituted pyridin-3-yl)methyl carbamates and their herbicidal activity” (J Pestic Sci, 2012).

Key:
Rotala indica [1] = assay: Herbicidal activity against Rotala indica at 300 g a.i/ha treated at 2.3-leaf stage measured after 26 days by outdoor concrete pot test; assay type: functional
Lindernia procumbens [2] = assay: Herbicidal activity against Lindernia procumbens at 300 g a.i/ha treated at 2.3-leaf stage measured after 26 days by outdoor concrete pot test; assay type: functional
Pontederia vaginalis [3] = assay: Herbicidal activity against Monochoria vaginalis at 300 g a.i/ha treated at 2.3-leaf stage measured after 26 days by outdoor concrete pot test; assay type: functional
Echinochloa oryzicola [4] = assay: Herbicidal activity against Echinochloa oryzicola at 300 g a.i/ha treated at 2.3-leaf stage measured after 26 days by outdoor concrete pot test; assay type: functional
Elatine triandra [5] = assay: Herbicidal activity against Elatine triandra at 300 g a.i/ha treated at 2.3-leaf stage measured after 26 days by outdoor concrete pot test; assay type: functional
[6] = test system: Schoenoplectiella juncoides; assay: Herbicidal activity against Schoenoplectiella juncoides at 300 g a.i/ha treated at 2.3-leaf stage measured after 26 days by outdoor concrete pot test; assay type: functional
Rotala indica [7] = assay: Herbicidal activity against Rotala indica at 300 g a.i/ha treated at 1.6-leaf stage measured after 26 days by outdoor concrete pot test; assay type: functional
Elatine triandra [8] = assay: Herbicidal activity against Elatine triandra at 300 g a.i/ha treated at 1.6-leaf stage measured after 26 days by outdoor concrete pot test; assay type: functional
Lindernia procumbens [9] = assay: Herbicidal activity against Lindernia procumbens at 300 g a.i/ha treated at 1.6-leaf stage measured after 26 days by outdoor concrete pot test; assay type: functional
[10] = test system: Schoenoplectiella juncoides; assay: Herbicidal activity against Schoenoplectiella juncoides at 300 g a.i/ha treated at 1.6-leaf stage measured after 26 days by outdoor concrete pot test; assay type: functional
Pontederia vaginalis [11] = assay: Herbicidal activity against Monochoria vaginalis at 300 g a.i/ha treated at 1.6-leaf stage measured after 26 days by outdoor concrete pot test; assay type: functional
Echinochloa oryzicola [12] = assay: Herbicidal activity against Echinochloa oryzicola at 300 g a.i/ha treated at 1.6-leaf stage measured after 26 days by outdoor concrete pot test; assay type: functional
Oryza sativa [13] = assay: Phytotoxicity against Oryza sativa cv. Kinuhikari (rice) at 300 g a.i/ha treated at 2.3-leaf stage measured after 26 days by outdoor concrete pot test; assay type: organism-based; conditions: in vivo, other, 624 h
Oryza sativa [14] = assay: Phytotoxicity against Oryza sativa cv. Kinuhikari (rice) planted at 3 cm depth measured after 20 to 25 days; assay type: organism-based; conditions: in vivo
[15] = test system: Schoenoplectiella juncoides; assay: Herbicidal activity against Schoenoplectiella juncoides under greenhouse condition compound treated at 0.5 leaf stage measured after 14 to 20 days; assay type: functional
Echinochloa oryzicola [16] = assay: Herbicidal activity against Echinochloa oryzicola under greenhouse condition compound treated at emergence stage measured after 14 to 20 days; assay type: functional
Echinochloa oryzicola [17] = assay: Herbicidal activity against Echinochloa oryzicola under greenhouse condition compound treated at 2.5 leaf stage measured after 14 to 20 days; assay type: functional

CCN(CC)C(=O)n1cnc(S(=O)(=O)c2c(C)cc(C)cc2C)n1 [CAFENSTROLE]
Efficacy (Rotala indica [1]): 99% | Efficacy (Lindernia procumbens [2]): 99% | Efficacy (Pontederia vaginalis [3]): 0% | Efficacy (Echinochloa oryzicola [4]): 95% | Efficacy (Elatine triandra [5]): 99% | Efficacy [6]: 0% | Efficacy (Rotala indica [7]): 100% | Efficacy (Elatine triandra [8]): 100% | Efficacy (Lindernia procumbens [9]): 100% | Efficacy [10]: 0% | Efficacy (Pontederia vaginalis [11]): 50% | Efficacy (Echinochloa oryzicola [12]): 100% | Efficacy (Oryza sativa [13]): 0%

CN(C)C(=O)OC(c1cnccc1C(F)(F)F)c1ccnc2ccccc12 (stereo not drawn)
ED20 (Oryza sativa [14]): 2000 gAi/ha | ED80 [15]: 500 gAi/ha | ED80 (Echinochloa oryzicola [16]): 125 gAi/ha

CNC(=O)OC(c1cnccc1C(F)(F)F)c1cccc2ccccc12 (stereo not drawn)
ED20 (Oryza sativa [14]): 2000 gAi/ha | ED80 [15]: 500 gAi/ha | ED80 (Echinochloa oryzicola [17]): 250 gAi/ha | ED80 (Echinochloa oryzicola [16]): 63 gAi/ha

CN(C)C(=O)OC(c1cnccc1C(F)(F)F)c1cnccc1C(F)(F)F
ED20 (Oryza sativa [14]): < 250 gAi/ha | ED80 [15]: 63 gAi/ha | ED80 (Echinochloa oryzicola [16]): 63 gAi/ha
